Laboratory results reported in patent US9663523B2, “BET protein-inhibiting 5-aryltriazoleazepines” (BAYER PHARMA AKTIENGESELLSCHAFT, priority 2012, dated 2017).

Key:
[1] = molecular target: BRD4(1) (amino acids 44-168) (Homo sapiens (Human), UniProt O60885); test: BRD4 binding strength, TR-FRET (HTRF) assay of BRD4(1) / acetylated histone H4 peptide interaction; settings: inhibition of BRD4(1)/Ac-H4 peptide interaction
Text: To assess the BRD4 binding strength of the compounds according to the invention, the ability thereof to inhibit the interaction between BRD4 and acetylated histone H4 in a dose-dependent manner was quantified. For this purpose, a time-resolved fluorescence resonance energy transfer (TR-FRET) assay was used, which measures the binding between N-terminally His6-tagged BRD4(1) (amino acids 44-168) and a synthetic acetylated histone H4 (Ac-H4) peptide with sequence […]-biotin. The recombinant BRD4 protein produced in-house according to Filippakopoulos et al., Cell, 2012, 149:214-231 was expressed in E. coli and purified by means of (Ni-NTA) affinity and (Sephadex G-75) size exclusion chromatography. The Ac-H4 peptide can be purchased, for example, from Biosyntan (Berlin, Germany). […] For this purpose, 100-fold concentrated solutions in DMSO were prepared by serial dilutions (1:3.4) of a 2 mM stock solution into a clear, 384-well microtitre plate (Greiner Bio-One, Frickenhausen, Germany). From this, 50 nl were transferred into a black test plate (Greiner Bio-One, Frickenhausen, Germany). […] This was followed by a 10-minute incubation step at 22° C. for the pre-equilibration of putative complexes between BRD4 and the substances. Subsequently, 3 μl of a solution of 1.67 times the concentration (in assay buffer) consisting of Ac-H4 peptide (83.5 nM) and TR-FRET detection reagents [16.7 nM anti-6His-XL665 and 3.34 nM streptavidin cryptate (both from Cisbio Bioassays, Codolet, France), and 668 mM potassium fluoride (KF)] were added. The mixture was then incubated in the dark at 22° C. for one hour and then at 4° C. overnight. The formation of BRD4/Ac-H4 complexes was determined by the measurement of the resonance energy transfer from the streptavidin-Eu cryptate to the anti-6His-XL665 antibody present in the reaction. […] The ratio of the emissions at 665 nm and at 622 nm was taken as an indicator of the amount of BRD4/Ac-H4 complexes formed.

LAPC-4 cells = test: Cell proliferation (alamarBlue), LAPC-4; format: cell-based; settings: Homo sapiens, LAPC4; prostate carcinoma (androgen receptor-positive) cell line, 168 hours incubation
Method: (§1) The ability of the compounds according to the invention to inhibit the proliferation of various cell lines was determined.
(§2) Cell viability was determined by means of the alamarBlue® reagent (Invitrogen). The cells were sown at different densities (MOLM-13, LAPC-4, MOLP-8 and MDA-MB-231: 4000 cells/well; B16F10: 400 cells/well) in 100 μl of growth medium on 96-well microtitre plates. After overnight incubation at 37° C., the fluorescence values (CI values) were determined. The plates were then treated with various substance dilutions and incubated at 37° C. for 96 hours (MOLM-13, MDA-MB-231 and B16F10 cells), 120 hours (MOLP-8 cells) or 168 hours (LAPC-4 cells). Subsequently, the fluorescence values were determined (CO values).
(§3) The compounds according to the invention were tested in the cell lines in Table 2, which represent the indications specified by way of example:
(§4) The indications corresponding to the different cell lines can be found in Table 2.

MOLM-13 cells = test: Cell proliferation (alamarBlue), MOLM-13; format: cell-based; settings: Homo sapiens, acute myeloid leukaemia cell line, 96 hours incubation
Method: as §1
as §2, with “values). For the data analysis, the CI values were subtracted from the CO values and the results were compared between cells which had been treated with various dilutions of the substance or only with buffer solution.” for “values).”
as §3, §4

B16F10 cells = test: Cell proliferation (alamarBlue), B16F10; format: cell-based; settings: Mus musculus, B16-F10; melanoma cell line, 96 hours incubation
Method: as §1
as §2, with “values). For the data analysis, the CI values were subtracted from the CO values and the results were compared between cells which had been treated with various dilutions of the substance or only with buffer solution.” for “values).”
as §3, §4

MOLP-8 cells = test: Cell proliferation (alamarBlue), MOLP-8; format: cell-based; settings: Homo sapiens, multiple myeloma cell line, 120 hours incubation
Method: as §1, §2, §3, §4

Work on `Cc1nnc2n1-c1ccccc1C(c1ccc(Cl)cc1)=CC2CC(=O)N1C2CCC1CC2` (centres unmarked) [Example 5, 1-(7-azabicyclo[2.2.1]hept-7-yl)-2-[6-(4-chlorophenyl)-1-methyl-4H-[1,2,4]triazolo[4,3-a][1]benzazepin-4-yl]ethanone] yielded an IC50 [1] of 1400 nM, an IC50 (LAPC-4 cells) of 620 nM and an IC50 (MOLM-13 cells) of 1120 nM. It also gave an IC50 (B16F10 cells) of 870 nM.
`Cc1nnc2n1-c1ccccc1C(c1ccc(Cl)cc1)=CC2CC(=O)N1C2CCC1CC2` (stereo in doubt) [Example 6, (−)-1 (7-azabicyclo[2.2.1]hept-7-yl)-2-[(4R)-6-(4-chlorophenyl)-1-methyl-4H-[1,2,4]triazolo[4,3-a][1]benzazepin-4-yl]ethanone] was tested, and the IC50 [1] was 600 nM, the IC50 (LAPC-4 cells) was 1060 nM and the IC50 (MOLM-13 cells) was 670 nM. It also gave an IC50 (B16F10 cells) of 1020 nM.
Work on `Cc1nnc(CC2C=C(c3ccc(Cl)cc3)c3cc(-c4c(C)noc4C)ccc3-n3c(C)nnc32)o1` (centres unmarked) [Example 48, 6-(4-chlorophenyl)-8-(3,5-dimethyl-1,2-oxazol-4-yl)-1-methyl-4-[(5-methyl-1,3,4-oxadiazol-2-yl)methyl]-4H-[1,2,4]triazolo[4,3-a][1]benzazepine] yielded an IC50 [1] of 340 nM, an IC50 (MOLM-13 cells) of 1380 nM and an IC50 (MOLP-8 cells) of 1620 nM.
For `Cc1nnc2n1-c1ccccc1C(c1ccc(Cl)cc1)=CC2Cc1nnc(C2CC2)o1` (centres unmarked) [Example 43, 6-(4-chlorophenyl)-4-[(5-cyclopropyl-1,3,4-oxadiazol-2-yl)methyl]-1-methyl-4H-[1,2,4]triazolo[4,3-a][1]benzazepine], the IC50 [1] was 130 nM, the IC50 (MOLM-13 cells) was 370 nM and the IC50 (MOLP-8 cells) was 210 nM.
`CCOC(=O)CC1C=C(c2cccc(Cl)c2)c2ccccc2-n2c(C)nnc21` (centres unmarked) [Example 7, ethyl [6-(3-chlorophenyl)-1-methyl-4H-[1,2,4]triazolo[4,3-a][1]benzazepin-4-yl]acetate] gave an IC50 [1] of 230 nM, an IC50 (LAPC-4 cells) of 750 nM and an IC50 (MOLM-13 cells) of 720 nM. It also gave an IC50 (B16F10 cells) of 780 nM.
`Cc1nnc2n1-c1ccccc1C(c1ccc(Cl)cc1)=CC2CC(=O)OC(C)(C)C` (stereo in doubt) [Example 9, tert-butyl (−)-[(4R)-6-(4-chlorophenyl)-1-methyl-4H-[1,2,4]triazolo[4,3-a][1]benzazepin-4-yl]acetate] was tested, and the IC50 (LAPC-4 cells) was 310 nM, the IC50 (MOLM-13 cells) was 430 nM and the IC50 (B16F10 cells) was 430 nM.
`CCOC(=O)CC1C=C(c2ccc(Cl)cc2)c2ccccc2-n2c(C)nnc21` (centres unmarked) [Example 1, ethyl [6-(4-chlorophenyl)-1-methyl-4H-[1,2,4]triazolo[4,3-a][1]benzazepin-4-yl]acetate] was tested, and the IC50 [1] was 180 nM, the IC50 (LAPC-4 cells) was 260 nM and the IC50 (MOLM-13 cells) was 330 nM. For the same molecule, the IC50 (B16F10 cells) was 300 nM.
For `Cc1nnc2n1-c1ccccc1C(c1cccc(Cl)c1)=CC2CC(=O)N1CC2(COC2)C1` (stereo in doubt) [Example 11, (−)-2-[(4R)-6-(3-chlorophenyl)-1-methyl-4H-[1,2,4]triazolo[4,3-a][1]benzazepin-4-yl]-1-(2-oxa-6-azaspiro[3.3]hept-6-yl)ethanone], the IC50 [1] was 300 nM, the IC50 (LAPC-4 cells) was 7890 nM and the IC50 (MOLM-13 cells) was 4190 nM. For the same molecule, the IC50 (B16F10 cells) was 9470 nM.
Work on `CC(=O)NNC(=O)CC1C=C(c2ccc(Cl)cc2)c2ccccc2-n2c(C)nnc21` (stereo in doubt) [Example 40, N′-acetyl-2-[(4R)-6-(4-chlorophenyl)-1-methyl-4H-[1,2,4]triazolo[4,3-a][1]benzazepin-4-yl]acetohydrazide] yielded an IC50 [1] of 40 nM, an IC50 (MOLM-13 cells) of 170 nM and an IC50 (MOLP-8 cells) of 80 nM.
`Cc1nc(CC2C=C(c3ccc(Cl)cc3)c3ccccc3-n3c(C)nnc32)no1` (centres unmarked) [Example 46, 6-(4-chlorophenyl)-1-methyl-4-[(5-methyl-1,2,4-oxadiazol-3-yl)methyl]-4H-[1,2,4]triazolo[4,3-a][1]benzazepine] gave an IC50 [1] of 80 nM, an IC50 (MOLM-13 cells) of 270 nM and an IC50 (MOLP-8 cells) of 140 nM.
For `Cc1nnc2n1-c1ccc(OC(F)(F)F)cc1C(c1ccc(Cl)cc1)=C[C@H]2CC(=O)N1CC2(COC2)C1` [Example 51], the IC50 (MOLM-13 cells) was 390 nM, the IC50 (B16F10 cells) was 580 nM and the IC50 (MOLP-8 cells) was 360 nM.
`Cc1nnc2n1-c1ccccc1C(c1ccc(Cl)cc1)=CC2Cc1nnc(-c2cccnc2)o1` (stereo in doubt) [Example 45, (−)-(4R)-6-(4-chlorophenyl)-1-methyl-4-{[5-(pyridin-3-yl)-1,3,4-oxadiazol-2-yl]methyl}-4H-[1,2,4]triazolo[4,3-a][1]benzazepine] was tested, and the IC50 [1] was 50 nM, the IC50 (MOLM-13 cells) was 100 nM and the IC50 (B16F10 cells) was 60 nM.
`Cc1nnc(CC2C=C(c3ccc(Cl)cc3)c3ccccc3-n3c(C)nnc32)o1` (centres unmarked) [Example 39, 6-(4-chlorophenyl)-1-methyl-4-[(5-methyl-1,3,4-oxadiazol-2-yl)methyl]-4H-[1,2,4]triazolo[4,3-a][1]benzazepine] showed an IC50 [1] of 40 nM and an IC50 (MOLM-13 cells) of 320 nM.
`CCOC(=O)CC1C=C(c2ccc(Cl)cc2)c2ccccc2-n2c(C)nnc21` (stereo in doubt) [Example 2, ethyl (−)-(4R)-[6-(4-chlorophenyl)-1-methyl-4H-[1,2,4]triazolo[4,3-a][1]benzazepin-4-yl]acetate] gave an IC50 [1] of 30 nM, an IC50 (LAPC-4 cells) of 80 nM and an IC50 (MOLM-13 cells) of 120 nM. For the same molecule, the IC50 (B16F10 cells) was 100 nM.
Work on `Cc1nnc2n1-c1ccc(OC(F)(F)F)cc1C(c1ccc(Cl)cc1)=CC2CC(=O)OC(C)(C)C` (centres unmarked) [Example 49, tert-butyl [6-(4-chlorophenyl)-1-methyl-8-(trifluoromethoxy)-4H-[1,2,4]triazolo[4,3-a][1]benzazepin-4-yl]acetate] yielded an IC50 (MOLM-13 cells) of 1690 nM, an IC50 (B16F10 cells) of 2200 nM and an IC50 (MOLP-8 cells) of 1890 nM.
`Cc1nnc2n1-c1ccccc1C(c1ccc(Cl)cc1)=CC2CC(=O)N1CC2(COC2)C1` (centres unmarked) [Example 3, 2-[6-(4-chlorophenyl)-1-methyl-4H-[1,2,4]triazolo[4,3-a][1]benzazepin-4-yl]-1-(2-oxa-6-azaspiro[3.3]hept-6-yl)ethanone] showed an IC50 [1] of 220 nM, an IC50 (LAPC-4 cells) of 470 nM and an IC50 (MOLM-13 cells) of 630 nM. The IC50 (B16F10 cells) was 740 nM.
In the case of `COc1ccc2c(c1)C(c1ccc(Cl)cc1)=CC(Cc1nnc(C)o1)c1nnc(C)n1-2` (centres unmarked) [Example 47, 6-(4-chlorophenyl)-8-methoxy-1-methyl-4-[(5-methyl-1,3,4-oxadiazol-2-yl)methyl]-4H-[1,2,4]triazolo[4,3-a][1]benzazepine], the IC50 [1] is reported as 50 nM, the IC50 (MOLM-13 cells) is reported as 150 nM and the IC50 (MOLP-8 cells) is reported as 90 nM.
`Cc1nnc2n1-c1ccccc1C(c1ccc(Cl)cc1)=CC2Cc1nnc(-c2cccnc2)o1` (centres unmarked) [Example 44, 6-(4-chlorophenyl)-1-methyl-4-{[5-(pyridin-3-yl)-1,3,4-oxadiazol-2-yl]methyl}-4H-[1,2,4]triazolo[4,3-a][1]benzazepine] was tested, and the IC50 [1] was 90 nM, the IC50 (MOLM-13 cells) was 420 nM and the IC50 (MOLP-8 cells) was 220 nM.
Molecule `Cc1noc(CC2C=C(c3ccc(Cl)cc3)c3ccccc3-n3c(C)nnc32)n1` (centres unmarked) [Example 34, 6-(4-chlorophenyl)-1-methyl-4-[(3-methyl-1,2,4-oxadiazol-5-yl)methyl]-4H-[1,2,4]triazolo[4,3-a][1]benzazepine] has an IC50 [1] of 90 nM and an IC50 (MOLM-13 cells) of 360 nM.
For `Cc1nnc(CC2C=C(c3ccc(Cl)cc3)c3ccccc3-n3c(C)nnc32)s1` (centres unmarked) [Example 41, 6-(4-chlorophenyl)-1-methyl-4-[(5-methyl-1,3,4-thiadiazol-2-yl)methyl]-4H-[1,2,4]triazolo[4,3-a][1]benzazepine], the IC50 [1] was 100 nM, the IC50 (MOLM-13 cells) was 720 nM and the IC50 (MOLP-8 cells) was 410 nM.
